According to patent US20240025886A1, “INHIBITORS OF IGF2BP1-RNA BINDING” (YISSUM RESEARCH DEVELOPMENT COMPANY OF THE HEBREW …, priority 2020, published 2024):

Test system: ES2 cells
Assay: Real-time PCR of steady state RNA levels in ES2 cells
Assay type: cell-based, human
Design: dose or concentration left out as unconfirmed
Procedure: Primers were calibrated for several Igf2bp1 RNA targets (Table 3): […]
Cells were grown for 12 hours in 12 well plates prior to incubation with the compound at different concentrations for an additional 12 or 24 hours. Total RNA was then extracted using EZ-RNA total RNA isolation kit (Biological Industries) and cDNA prepared from the RNA using the First Strand cDNA Synthesis kit (Quanta bio). Real time PCR was performed with Fast SYBR Green Master Mix (Thermo Fisher Scientific), and cDNA expression analyzed with the Bio-Rad CFX Manager 3.1.

O=C(c1ccc(Cn2cnnn2)cc1)N1CCCC(Nc2ccc3c(c2)OCO3)C1 (stereo not drawn) [Compound 7773]
Steady state levels of CD44, Kras, cMyc and SRF RNA (ES2, 7773, 12 hours): reduced
Steady state level of CD44 RNA (ES2, 7773, 12 hours, appeared to recover after 24 hours): strongly reduced
Steady state levels of control RNAs (not targets of Igf2bp1) (ES2, 7773, 24 hours): not significantly affected
